# Laboratory results published in patent publication US8911713B2, “Method for preventing or treating skin tumor” (Galderma Research & Development, priority 2010, dated 2014).
# Read-outs that look alike come from different tables or passages of the source.
# Test system: UV-induced skin tumor
# Details: for Tumor Yield (≧1 mm): average number of tumors per survivor; for Median Week to Tumor (≧1 mm): 100 μL/mouse, 5 days/wk, + 600 RBU/week UVR, 40 weeks + 12 weeks observation
# Experimental: Albino hairless SKH1-hr mice (36/sex/group) were treated for 40 weeks with UVR and brimonidine gel or vehicle according to the design in table 11. […] Topical treatments were performed approximately one hour before UVR on Monday, Wednesday and Friday of each week and approximately one hour after UVR Tuesday and Thursday of each week.
smiles,measurement,setting,value
"Brc1c(NC2=NCCN2)ccc2nccnc12 [Brimonidine, (5-Bromo-quinoxalin-6-yl)-(4,5-dihydro-1H-imidazol-2-yl)-amine]",Reduction of tumor yield (≧1 mm) compared to the vehicle group,0.18% topical + 600 RBU/week UVR,1.7 fold
same,Members of the group that acquired one or more qualifying tumors (≧1 mm) within the 52-week study period,1% topical + 600 RBU/week UVR,less than one-half
same,Reduction of tumor yield (≧1 mm) compared to the vehicle group,1% topical + 600 RBU/week UVR,4.7 fold
same,Members of the group that acquired one or more qualifying tumors (≧1 mm) within the 52-week study period,2% topical + 600 RBU/week UVR,less than one-half
same,Reduction of tumor yield (≧1 mm) compared to the vehicle group,2% topical + 600 RBU/week UVR,8.1 fold
same,Tumor Yield (≧1 mm),Group 2: 0.18% topical + 600 RBU/week UVR,2.40 tumors per survivor
same,Median Week to Tumor (≧1 mm),Group 2: 0.18% topical,48 Week
same,Tumor Yield (≧1 mm),Group 3: 1% topical + 600 RBU/week UVR,0.85 tumors per survivor
same,Median Week to Tumor (≧1 mm),Group 3: 1% topical,>52 Week
same,Tumor Yield (≧1 mm),Group 4: 2% topical + 600 RBU/week UVR,0.49 tumors per survivor
same,Median Week to Tumor (≧1 mm),Group 4: 2% topical,>52 Week
same,UV-induced skin tumor formation,"topical 0.18%, 1% and 2% + 600 RBU/week UVR",dose-dependent delay
same,"Sizes of tumors (tumor prevalence by size, FIG. 1)","with increasing concentration, topical, sexes combined",the sizes of tumors were also reduced
